Results taken from US20080214611A1, “Pharmaceutical Compositions - 659” (AstraZeneca AB, priority 2007, published 2008).

Experiments:
[1] = rat, in vivo, po
Method: (§1) The dispersions prepared according to Example 1 and Example 2 were tested in in vivo rat study together with dispersions comprising crystalline particles (prepared by wet milling) of compound A and B, respectively. The dispersions were orally administered at 100 mmol/kg.
(§2) The open circles illustrate the results obtained upon administration of the dispersions comprising crystalline particles.

[2] = in vivo rat study: plasma concentration after oral administration of amorphous versus wet-milled crystalline dispersions; settings: 100 mmol/kg, maximum plasma concentration ratio of amorphous dispersion (Example 1 or 2) to wet-milled crystalline dispersion
Method: as §1, §2

| Structure (SMILES) | AUCamorph/AUCcrystal [1] | c^maxamorph/c^maxcrystal [2] |
| --- | --- | --- |
| O=C(NC1CCCCC1O)c1nn(-c2ccc(Cl)cc2Cl)c(-c2ccc(OS(=O)(=O)CCC(F)(F)F)cc2)c1CO (centres unmarked) [Compound A, 1-propanesulfonic acid, 3,3,3-trifluoro-, 4-[1-(2,4-dichlorophenyl)-3-[[(2-hydroxycyclohexyl)amino]carbonyl]-4-(hydroxymethyl)-1H-pyrazol-5-yl]phenyl ester] | 4.8 |  |
| O=C(NC1CCCCC1)c1nn(-c2ccc(Cl)cc2Cl)c(-c2ccc(OS(=O)(=O)CCC(F)(F)F)cc2)c1CO [Compound B, 1-propanesulfonic acid, 3,3,3-trifluoro-, 4-[3-[(cyclohexylamino)carbonyl]-1-(2,4-dichlorophenyl)-4-(hydroxymethyl)-1H-pyrazol-5-yl]phenyl ester] |  | 10 |
